Eight molecules from ChEMBL document CHEMBL5465560, “Selectivity Literature for EUbOPEN Chemogenomic Library” (2024) can be followed below.

The target of assay [1] is Tyrosine-protein kinase ABL2 (Homo sapiens, UniProt P42684). Kind of assay: Selectivity interaction (Kinase panel (Z-LYTE Assay)) EUB0001632a ABL2. Conditions: at 10 µM.
The target of assay [2] is Insulin-like growth factor 1 receptor (Homo sapiens, UniProt P08069). To be noted: at 10 µM.
Assay [3] concerns the target Tyrosine-protein kinase JAK1 (Homo sapiens, UniProt P23458). Kind of assay: Selectivity interaction (KinomeScan (DiscoverX)) EUB0000695a JAK1. Conditions: at 100 nM.
In assay [4] the target is Fibroblast growth factor receptor 2 (Homo sapiens) (UniProt P21802). Kind of assay: Selectivity interaction (KinaseProfiler screening (Millipore)) EUB0000601a FGFR2. To be noted: at 3 µM.
Assay [5] concerns the target Serine/threonine-protein kinase Chk2 (Homo sapiens) (UniProt O96017). Kind of assay: Selectivity interaction (ProQinase) EUB0000171b CHEK2.
The target in assay [6] is Serine/threonine-protein kinase WNK1 (Homo sapiens) (UniProt Q9H4A3). Kind of assay: Selectivity interaction (ProQinase) EUB0000171b WNK1.
In assay [7] the target is T1, Myosin-IIIb (Homo sapiens) (UniProt Q8WXR4).
T1 sequence (whole entry): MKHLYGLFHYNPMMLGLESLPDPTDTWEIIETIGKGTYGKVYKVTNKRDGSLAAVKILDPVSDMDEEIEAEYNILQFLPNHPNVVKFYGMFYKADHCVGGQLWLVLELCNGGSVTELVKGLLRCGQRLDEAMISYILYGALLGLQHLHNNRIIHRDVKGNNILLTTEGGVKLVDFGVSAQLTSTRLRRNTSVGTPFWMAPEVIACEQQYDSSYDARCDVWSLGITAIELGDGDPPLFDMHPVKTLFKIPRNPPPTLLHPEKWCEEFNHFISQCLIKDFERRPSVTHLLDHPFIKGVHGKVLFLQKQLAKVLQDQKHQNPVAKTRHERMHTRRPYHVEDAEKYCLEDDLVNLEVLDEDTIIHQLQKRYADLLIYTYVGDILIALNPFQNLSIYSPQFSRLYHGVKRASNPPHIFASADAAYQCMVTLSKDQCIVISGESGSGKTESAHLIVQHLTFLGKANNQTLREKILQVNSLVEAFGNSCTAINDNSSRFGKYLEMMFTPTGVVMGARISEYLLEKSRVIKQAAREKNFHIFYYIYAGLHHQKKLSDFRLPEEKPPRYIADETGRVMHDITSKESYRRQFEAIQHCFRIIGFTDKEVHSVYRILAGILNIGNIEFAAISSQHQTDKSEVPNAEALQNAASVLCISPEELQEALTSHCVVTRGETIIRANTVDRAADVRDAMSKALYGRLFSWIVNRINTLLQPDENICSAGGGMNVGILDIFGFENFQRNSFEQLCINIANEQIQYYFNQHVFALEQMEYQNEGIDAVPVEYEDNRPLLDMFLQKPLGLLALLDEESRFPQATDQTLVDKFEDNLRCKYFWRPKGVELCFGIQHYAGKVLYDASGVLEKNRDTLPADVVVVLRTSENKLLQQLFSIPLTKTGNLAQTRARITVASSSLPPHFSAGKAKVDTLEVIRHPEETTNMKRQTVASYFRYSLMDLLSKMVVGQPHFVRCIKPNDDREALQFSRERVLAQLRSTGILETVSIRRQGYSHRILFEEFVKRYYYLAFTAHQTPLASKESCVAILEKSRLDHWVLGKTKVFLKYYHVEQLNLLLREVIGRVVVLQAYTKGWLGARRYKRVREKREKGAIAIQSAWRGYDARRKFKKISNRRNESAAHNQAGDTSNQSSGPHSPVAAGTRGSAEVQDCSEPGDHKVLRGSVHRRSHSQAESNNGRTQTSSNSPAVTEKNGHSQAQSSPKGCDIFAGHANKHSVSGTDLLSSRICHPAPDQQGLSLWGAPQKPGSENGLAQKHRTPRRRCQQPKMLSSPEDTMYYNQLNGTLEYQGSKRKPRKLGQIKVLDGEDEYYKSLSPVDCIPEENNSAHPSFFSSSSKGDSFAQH
Kind of assay: Selectivity interaction (KinomeScan (DiscoverX)) EUB0000655a MYO3B. To be noted: at 10 µM.

Assay [8] addresses Serine/threonine-protein kinase tousled-like 2 (Homo sapiens) (UniProt Q86UE8). Kind of assay: Selectivity interaction (KinomeScan (DiscoverX)) EUB0000229b TLK2. To be noted: at 10 µM.
Assay [9] deals with T2, Serine/threonine-protein kinase TAO1 (Homo sapiens) (UniProt Q7L7X3).
T2 sequence (whole entry): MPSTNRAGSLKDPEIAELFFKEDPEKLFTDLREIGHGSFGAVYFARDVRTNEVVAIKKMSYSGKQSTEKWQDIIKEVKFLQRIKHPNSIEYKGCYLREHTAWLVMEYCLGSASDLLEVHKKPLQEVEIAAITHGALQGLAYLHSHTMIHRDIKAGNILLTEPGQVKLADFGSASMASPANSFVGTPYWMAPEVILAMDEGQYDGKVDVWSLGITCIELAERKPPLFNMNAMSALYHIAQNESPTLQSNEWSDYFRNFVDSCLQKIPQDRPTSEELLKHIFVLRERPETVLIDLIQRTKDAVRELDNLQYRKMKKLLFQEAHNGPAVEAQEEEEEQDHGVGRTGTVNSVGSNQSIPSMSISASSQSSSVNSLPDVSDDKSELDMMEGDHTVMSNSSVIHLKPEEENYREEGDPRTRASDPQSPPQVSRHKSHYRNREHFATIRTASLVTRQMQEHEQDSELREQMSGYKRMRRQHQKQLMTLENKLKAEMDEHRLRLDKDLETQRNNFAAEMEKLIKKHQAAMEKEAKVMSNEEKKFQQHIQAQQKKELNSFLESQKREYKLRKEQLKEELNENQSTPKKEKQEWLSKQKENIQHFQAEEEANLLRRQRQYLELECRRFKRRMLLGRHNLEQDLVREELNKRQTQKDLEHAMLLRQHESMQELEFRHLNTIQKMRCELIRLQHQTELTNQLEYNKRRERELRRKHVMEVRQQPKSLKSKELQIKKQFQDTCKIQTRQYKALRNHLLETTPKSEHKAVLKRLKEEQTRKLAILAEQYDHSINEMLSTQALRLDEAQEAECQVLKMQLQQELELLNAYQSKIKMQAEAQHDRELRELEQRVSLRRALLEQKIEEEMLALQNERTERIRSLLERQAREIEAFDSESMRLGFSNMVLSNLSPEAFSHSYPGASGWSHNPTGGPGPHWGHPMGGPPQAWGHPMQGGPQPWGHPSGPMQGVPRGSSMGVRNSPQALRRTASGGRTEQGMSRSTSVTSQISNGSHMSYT
Kind of assay: Selectivity interaction (Kinase panel (KiNativ target engagement assay in Jurkat cells)) EUB0001635a TAOK1. In kind it is cell-based. Conditions: Selectivity number of off-targets 0.0, Selectivity number of targets 233.0, Source Knowledge https://www.sciencedirect.com/science/article/pii/S2451945619300674?via%3Dihub, at 1 µM.

SMILES strings stand for the structures.

Sequence of Serine/threonine-protein kinase Chk2 (Homo sapiens) (O96017 whole entry): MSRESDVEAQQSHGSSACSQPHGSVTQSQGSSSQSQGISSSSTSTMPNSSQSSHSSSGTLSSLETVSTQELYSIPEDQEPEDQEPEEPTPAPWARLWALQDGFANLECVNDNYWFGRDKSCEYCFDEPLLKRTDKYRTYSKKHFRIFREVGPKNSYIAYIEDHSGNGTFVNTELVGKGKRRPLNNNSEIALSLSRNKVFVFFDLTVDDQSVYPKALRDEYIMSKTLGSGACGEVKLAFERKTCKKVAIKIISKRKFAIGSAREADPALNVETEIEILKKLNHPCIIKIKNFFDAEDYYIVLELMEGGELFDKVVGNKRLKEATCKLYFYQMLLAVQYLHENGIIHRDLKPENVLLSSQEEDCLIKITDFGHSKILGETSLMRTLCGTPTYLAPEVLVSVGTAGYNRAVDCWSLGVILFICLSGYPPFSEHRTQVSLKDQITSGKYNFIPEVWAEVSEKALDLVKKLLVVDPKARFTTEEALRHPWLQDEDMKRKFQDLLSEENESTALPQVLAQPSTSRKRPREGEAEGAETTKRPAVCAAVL
Sequence of Serine/threonine-protein kinase WNK1 (Homo sapiens) (Q9H4A3 whole entry, looked up): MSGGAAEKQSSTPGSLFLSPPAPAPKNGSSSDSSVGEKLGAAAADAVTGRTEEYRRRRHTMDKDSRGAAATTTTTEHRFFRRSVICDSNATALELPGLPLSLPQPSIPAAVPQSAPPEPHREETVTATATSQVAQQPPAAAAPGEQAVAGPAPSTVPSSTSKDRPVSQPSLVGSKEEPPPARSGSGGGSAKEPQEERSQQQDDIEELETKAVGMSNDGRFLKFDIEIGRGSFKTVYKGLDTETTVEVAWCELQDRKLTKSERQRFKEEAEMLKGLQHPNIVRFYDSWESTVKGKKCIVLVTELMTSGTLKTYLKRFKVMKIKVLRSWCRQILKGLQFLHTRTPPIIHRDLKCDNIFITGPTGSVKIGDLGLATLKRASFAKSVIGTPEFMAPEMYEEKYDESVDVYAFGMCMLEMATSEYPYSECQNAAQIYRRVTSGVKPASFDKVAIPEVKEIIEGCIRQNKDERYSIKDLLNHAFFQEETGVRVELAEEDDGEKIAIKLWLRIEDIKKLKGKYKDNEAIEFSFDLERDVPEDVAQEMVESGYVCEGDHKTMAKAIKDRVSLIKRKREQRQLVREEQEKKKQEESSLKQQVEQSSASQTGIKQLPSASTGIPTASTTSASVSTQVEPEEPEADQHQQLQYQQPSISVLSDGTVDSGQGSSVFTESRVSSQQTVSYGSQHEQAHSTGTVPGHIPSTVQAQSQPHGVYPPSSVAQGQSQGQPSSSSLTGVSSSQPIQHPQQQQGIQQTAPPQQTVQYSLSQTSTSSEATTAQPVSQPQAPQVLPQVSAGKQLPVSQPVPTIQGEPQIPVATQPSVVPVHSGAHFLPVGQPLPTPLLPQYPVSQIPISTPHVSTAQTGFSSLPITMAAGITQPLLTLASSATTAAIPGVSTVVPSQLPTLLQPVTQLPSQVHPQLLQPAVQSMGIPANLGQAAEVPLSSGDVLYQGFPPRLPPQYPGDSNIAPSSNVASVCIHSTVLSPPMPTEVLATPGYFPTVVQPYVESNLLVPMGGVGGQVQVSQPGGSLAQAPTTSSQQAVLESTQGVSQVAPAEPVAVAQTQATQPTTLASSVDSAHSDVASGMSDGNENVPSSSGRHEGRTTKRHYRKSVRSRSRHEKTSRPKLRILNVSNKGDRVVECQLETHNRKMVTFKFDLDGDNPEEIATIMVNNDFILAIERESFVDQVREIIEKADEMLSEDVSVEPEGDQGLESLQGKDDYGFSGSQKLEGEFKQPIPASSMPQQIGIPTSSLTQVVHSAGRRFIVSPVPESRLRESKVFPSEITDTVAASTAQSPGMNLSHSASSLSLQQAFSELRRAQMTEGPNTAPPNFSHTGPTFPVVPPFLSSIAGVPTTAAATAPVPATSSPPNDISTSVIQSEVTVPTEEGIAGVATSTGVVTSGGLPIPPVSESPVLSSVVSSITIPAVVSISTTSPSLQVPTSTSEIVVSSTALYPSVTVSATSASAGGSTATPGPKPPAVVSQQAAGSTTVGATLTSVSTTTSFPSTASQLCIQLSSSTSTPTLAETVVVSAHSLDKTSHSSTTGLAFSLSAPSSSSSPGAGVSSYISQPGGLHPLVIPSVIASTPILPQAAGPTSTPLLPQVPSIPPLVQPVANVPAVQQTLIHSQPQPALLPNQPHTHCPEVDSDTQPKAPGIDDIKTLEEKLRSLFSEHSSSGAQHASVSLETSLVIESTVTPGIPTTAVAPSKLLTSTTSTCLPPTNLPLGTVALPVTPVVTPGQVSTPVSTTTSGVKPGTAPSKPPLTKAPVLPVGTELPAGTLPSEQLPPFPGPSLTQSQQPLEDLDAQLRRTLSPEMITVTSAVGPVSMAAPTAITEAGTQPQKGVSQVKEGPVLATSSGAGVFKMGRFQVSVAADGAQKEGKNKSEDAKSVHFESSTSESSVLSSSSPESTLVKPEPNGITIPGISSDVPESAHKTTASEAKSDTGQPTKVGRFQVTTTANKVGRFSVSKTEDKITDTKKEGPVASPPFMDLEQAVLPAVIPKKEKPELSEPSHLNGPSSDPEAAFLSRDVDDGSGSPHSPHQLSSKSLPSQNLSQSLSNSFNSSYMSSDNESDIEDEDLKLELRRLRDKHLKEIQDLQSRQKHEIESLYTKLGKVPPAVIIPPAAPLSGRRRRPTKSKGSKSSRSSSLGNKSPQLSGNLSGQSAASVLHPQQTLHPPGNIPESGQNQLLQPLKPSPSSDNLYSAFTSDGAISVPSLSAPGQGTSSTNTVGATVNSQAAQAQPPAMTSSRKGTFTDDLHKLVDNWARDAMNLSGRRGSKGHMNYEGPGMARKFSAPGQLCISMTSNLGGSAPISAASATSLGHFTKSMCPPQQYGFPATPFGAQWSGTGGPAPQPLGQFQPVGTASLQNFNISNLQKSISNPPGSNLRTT
Sequence of Insulin-like growth factor 1 receptor (P08069 31-736 limits assumed): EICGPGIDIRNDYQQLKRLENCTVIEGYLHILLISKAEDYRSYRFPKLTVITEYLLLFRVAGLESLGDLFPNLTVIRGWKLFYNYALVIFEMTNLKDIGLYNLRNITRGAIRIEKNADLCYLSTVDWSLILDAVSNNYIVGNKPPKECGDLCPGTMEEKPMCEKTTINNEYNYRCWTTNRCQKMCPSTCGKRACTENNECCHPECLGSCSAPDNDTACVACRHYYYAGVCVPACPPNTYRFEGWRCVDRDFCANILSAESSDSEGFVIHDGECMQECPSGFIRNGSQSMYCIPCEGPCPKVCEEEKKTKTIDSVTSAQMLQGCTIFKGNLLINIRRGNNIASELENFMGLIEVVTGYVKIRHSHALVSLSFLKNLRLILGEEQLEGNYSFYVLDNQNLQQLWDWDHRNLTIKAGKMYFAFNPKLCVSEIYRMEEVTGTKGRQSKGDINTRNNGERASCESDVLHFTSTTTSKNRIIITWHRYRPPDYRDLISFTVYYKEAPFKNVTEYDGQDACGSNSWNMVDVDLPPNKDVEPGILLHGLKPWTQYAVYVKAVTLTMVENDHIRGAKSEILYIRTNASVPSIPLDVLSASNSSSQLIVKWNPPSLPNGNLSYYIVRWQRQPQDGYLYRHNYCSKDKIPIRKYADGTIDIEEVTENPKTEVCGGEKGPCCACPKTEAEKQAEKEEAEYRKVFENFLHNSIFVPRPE
Sequence of Insulin-like growth factor 1 receptor (P08069 741-1367 limits assumed): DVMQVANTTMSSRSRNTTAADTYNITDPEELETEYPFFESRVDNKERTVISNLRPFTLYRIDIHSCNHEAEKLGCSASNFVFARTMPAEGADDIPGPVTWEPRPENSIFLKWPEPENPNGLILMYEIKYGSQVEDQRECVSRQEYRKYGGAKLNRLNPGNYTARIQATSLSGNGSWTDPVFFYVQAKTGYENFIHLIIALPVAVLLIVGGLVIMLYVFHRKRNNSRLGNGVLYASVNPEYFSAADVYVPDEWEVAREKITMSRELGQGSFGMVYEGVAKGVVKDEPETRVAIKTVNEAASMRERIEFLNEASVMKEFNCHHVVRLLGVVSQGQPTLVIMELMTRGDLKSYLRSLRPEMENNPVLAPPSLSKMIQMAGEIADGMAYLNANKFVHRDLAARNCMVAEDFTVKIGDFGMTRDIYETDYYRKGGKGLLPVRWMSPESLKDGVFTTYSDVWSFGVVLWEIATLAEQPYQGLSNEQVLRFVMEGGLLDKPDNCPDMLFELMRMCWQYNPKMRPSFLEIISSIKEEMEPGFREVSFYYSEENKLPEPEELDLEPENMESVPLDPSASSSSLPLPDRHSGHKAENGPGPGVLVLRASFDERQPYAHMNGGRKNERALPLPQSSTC
Sequence of Serine/threonine-protein kinase tousled-like 2 (Homo sapiens) (Q86UE8 whole entry, looked up): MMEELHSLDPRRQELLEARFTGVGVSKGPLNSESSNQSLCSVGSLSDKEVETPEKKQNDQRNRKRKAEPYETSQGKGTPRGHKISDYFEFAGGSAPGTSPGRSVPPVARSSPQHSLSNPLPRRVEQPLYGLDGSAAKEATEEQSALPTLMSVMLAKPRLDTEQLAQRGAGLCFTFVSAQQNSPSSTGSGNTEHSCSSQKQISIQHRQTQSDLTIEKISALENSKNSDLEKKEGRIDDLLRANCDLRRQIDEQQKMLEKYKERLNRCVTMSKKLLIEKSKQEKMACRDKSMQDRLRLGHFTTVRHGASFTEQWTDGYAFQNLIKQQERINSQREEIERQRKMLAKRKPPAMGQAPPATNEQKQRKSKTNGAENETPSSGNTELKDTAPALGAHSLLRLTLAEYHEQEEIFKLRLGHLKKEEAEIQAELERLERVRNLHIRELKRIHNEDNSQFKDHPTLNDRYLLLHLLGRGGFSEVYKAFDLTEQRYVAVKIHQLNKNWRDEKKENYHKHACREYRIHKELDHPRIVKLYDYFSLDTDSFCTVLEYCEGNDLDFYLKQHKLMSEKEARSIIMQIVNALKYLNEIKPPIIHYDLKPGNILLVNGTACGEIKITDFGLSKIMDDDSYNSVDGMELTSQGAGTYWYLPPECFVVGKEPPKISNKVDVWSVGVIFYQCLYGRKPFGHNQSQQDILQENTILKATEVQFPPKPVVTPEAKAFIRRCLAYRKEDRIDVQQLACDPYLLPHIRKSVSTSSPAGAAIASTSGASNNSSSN

In the case of `Cn1cc(-n2cnc3c(NCc4nc5cc(Cl)c(Cl)cc5[nH]4)nc(N4CCOCC4)nc32)cn1`, in assay [1], the % of control came out at 6.33%.
With `CCN(CC)CCCCNc1ncc2cc(-c3cc(OC)cc(OC)c3)c(NC(=O)NC(C)(C)C)nc2n1`, the % of control in assay [2] came to 100%.
In the case of `Cc1cc(F)c(C(=O)Nc2cccc(-c3nncn3C(C)C)n2)cc1-n1cnc(C2CC2)c1`, in [3], the % of control was found to be 60%.
`CCc1cc(Nc2nccc(-c3c(-c4ccc(OC)c(C(=O)Nc5c(F)cccc5F)c4)nc4ccccn34)n2)c(OC)cc1N1CCC(N2CCN(S(C)(=O)=O)CC2)CC1` yielded a % of inhibition in [4] of 50%.
As for `C=CC(=O)Nc1cccc(C(=O)Nc2ccc(Nc3cc(-c4[nH]c(SC)nc4C)ccn3)cc2)c1`, the % of control turned out to be 70% in assay [5] (at 1 µM), 36% in [5] (at 5 µM), 95% in assay [6] (at 1 µM) and 81% in [6] (at 5 µM).
For `CN(C)CCOc1ccc(-c2nc(-c3ccncc3)c(-c3ccc4c(c3)CC/C4=N\O)[nH]2)cc1`, the % of control in [7] was 81%.
For the molecule `COc1cc(N(C)c2ccnc3ccc(C(F)(F)F)cc23)cc(OC)c1OC`, the % binding in assay [8] is 92%.
As to `C=CC(=O)Nc1ccc(C(=O)Nc2[nH]nc3c2CN(C(=O)N[C@H](CN(C)C)c2ccccc2)C3(C)C)cc1`, the % of engagement in [9] is -0.7%.
